In patent US20150276755A1, “METHODS FOR DETERMINING RESISTANCE AGAINST MOLECULES TARGETING PROTEINS” (AGENCY FOR SCIENCE, TECHNOLOGY AND RESEARCH, priority 2012, published 2015):
“Also recorded” adds a separate entry of the source.

Tests used:
[1] = molecular target: T1, HDM2 M62A (Homo sapiens, UniProt Q00987, M62A); test: p53 reporter assay in p53/HDM2-null DKO cells, HDM2 M62A; type: cell-based; conditions: 20 μM
T1 construct: expressed in transfected cells; host or cells: DKO mouse embryonic fibroblasts (A12); HCT116 p53+/+ (A28)
Description: (§1) DKO (p53/HDM2 null) cells were maintained in Dulbecco's modified Eagle's medium (DMEM) with 10% foetal calf serum (FCS) and 1% penicillin/streptomycin. The cells were seeded at 1.0×10^5 cells/well in 6-well plates, 24 hours prior to transfection. […] In all cases, the total amount of plasmid DNA transfected per well was equilibrated by addition of the parental vector pcDNA3.1a(+).
(§2) DKO cells were harvested 24 hours after transfection and […] activities were assessed using the Dual-light System (Applied Biosystems) according to the manufacturer's protocol. The β-galactosidase activity was normalized with luciferase activity for each sample. To check for expression levels of relevant proteins via Western blot, 2.5 μg of the cell lysates were subjected to electrophoresis, transferred to nitrocellulose membranes and probed for p53 with horseradish peroxidise conjugated DO1 antibody, for HDM2 and actin with anti-HA antibody and AC15 antibody respectively followed by rabbit anti-mouse.
(§3) Mouse embryonic fibroblast p53/Mdm2 double-knockout (DKO) cells (a kind gift from Guillermina Lozano) and H1299 p53^−/− cells were maintained in Dulbecco's modified Eagle's medium (DMEM) with 10% (v/v) foetal calf serum (FCS) and 1% (v/v) penicillin/streptomycin. The cells were seeded at 1.0×10^5 cells/well in 6-well plates, 24 hours prior to transfection. […]

[2] = molecular target: T2, HDM2 Q24R-p53 interaction (Homo sapiens, UniProt Q00987, Q24R); test: In vitro pull-down (co-immunoprecipitation, Western blot), HDM2 Q24R; type: biochemical; conditions: 10 μM
T2 construct: made in house; host or cells: cell-free in vitro transcription-translation (IVT)
Description: (§4) Protein G beads were incubated with anti-HA (1 μg per 10 μL beads) for 1 hour in PEST-3% BSA and subsequently washed twice in PBST-0.1% BSA. IVT-expressed protein was incubated with the beads on a rotator for 30 mins. […] IVT-containing secondary protein was added to the mixture and incubation allowed for 1 hour. Beads were finally washed thrice in PBST-0.1% BSA and thrice with PBS, and bound proteins eluted by resuspension in 20 μL SDS-PAGE loading buffer and incubation at 95° C. for 5 minutes. Where required, blank IVT extract (no template DNA added) was used as control. The eluates were subjected to electrophoresis, transferred to nitrocellulose membranes and probed for p53 with horseradish peroxidise conjugated DO1 antibody (Santa Cruz) or for HDM2 with anti-HA antibody followed by rabbit anti-mouse (Dakocytomation).
(§5) Protein G beads (Invitrogen) were incubated with anti-HA (1 μg per 10 μL beads) for 1 hour in PBST-3% BSA and subsequently washed twice in PBST-0.1% BSA. IVT expressed wild-type or mutant HDM2 was incubated with the beads on a rotator for 30 mins. […] IVT-expressed p53 was added to the mixture and incubation allowed for 1 hour. Beads were finally washed thrice in PBST-0.1% BSA and thrice with PBS, and bound proteins eluted by resuspension in 20 μL SDS-PAGE loading buffer and incubation at 95° C. for 5 minutes. […]

[3] = molecular target: T3, wild-type HDM2-p53 interaction (Homo sapiens, UniProt Q00987); test: In vitro pull-down (co-immunoprecipitation, Western blot), wild-type HDM2; type: biochemical; conditions: 10 μM
T3 construct: made in house; host or cells: cell-free in vitro transcription-translation (IVT)
Description: as §4, §5

[4] = molecular target: T4, HDM2 M62A-p53 interaction (Homo sapiens, UniProt Q00987, M62A); test: In vitro pull-down (co-immunoprecipitation, Western blot), HDM2 M62A; type: biochemical; conditions: 10 μM
T4 construct: made in house; host or cells: cell-free in vitro transcription-translation (IVT)
Description: as §4, §5

[5] = molecular target: T5, wild-type HDM2 (Homo sapiens, UniProt Q00987); test: p53 reporter assay in p53/HDM2-null DKO cells, wild-type HDM2; type: cell-based; conditions: 20 μM
T5 construct: expressed in transfected cells; host or cells: H1299 p53-/- cells (A5); mouse embryonic fibroblast p53/Mdm2 double-knockout (DKO) cells (A7)
Description: as §1, §2, §3

[6] = molecular target: purified HDM2 (amino acids 1-125) M62A (human) (UniProt Q00987); test: competitive fluorescence anisotropy against FAM-12-1 peptide, apparent Kd
[7] = molecular target: purified HDM2 (amino acids 1-125), wild-type (human) (UniProt Q00987); test: as above
[8] = molecular target: purified HDM2 (amino acids 1-125) Q24R (human) (UniProt Q00987); test: as above
[9] = molecular target: purified HDM2 (amino acids 1-125) P20L (human) (UniProt Q00987); test: as above
Sequence of purified HDM2 (amino acids 1-125) P20L (human) (Q00987 1-125 P20L limits assumed): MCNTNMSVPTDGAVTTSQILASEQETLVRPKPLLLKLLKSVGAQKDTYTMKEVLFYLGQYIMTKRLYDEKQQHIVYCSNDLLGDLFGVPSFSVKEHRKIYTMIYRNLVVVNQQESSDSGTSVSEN

T2 sequence (Q00987 whole entry Q24R): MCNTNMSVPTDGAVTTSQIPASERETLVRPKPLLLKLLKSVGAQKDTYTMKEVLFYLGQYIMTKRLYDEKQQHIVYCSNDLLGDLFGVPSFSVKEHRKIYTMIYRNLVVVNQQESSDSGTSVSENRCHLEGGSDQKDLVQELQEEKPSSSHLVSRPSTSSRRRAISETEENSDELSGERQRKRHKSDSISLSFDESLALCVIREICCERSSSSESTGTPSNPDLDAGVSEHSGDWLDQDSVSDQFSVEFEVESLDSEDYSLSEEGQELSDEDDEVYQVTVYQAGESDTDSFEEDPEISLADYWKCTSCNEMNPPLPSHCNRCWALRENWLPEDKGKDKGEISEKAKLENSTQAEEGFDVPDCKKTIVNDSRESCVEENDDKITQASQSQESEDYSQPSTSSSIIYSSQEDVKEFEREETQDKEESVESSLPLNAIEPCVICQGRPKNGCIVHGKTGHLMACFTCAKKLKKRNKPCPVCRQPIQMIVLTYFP
T4 sequence (Q00987 whole entry M62A): as the sequence (Q00987 whole entry Q24R) above, with R24Q, M62A counted along it
Sequence of purified HDM2 (amino acids 1-125) M62A (human) (Q00987 1-125 M62A limits assumed): as the sequence (Q00987 1-125 P20L limits assumed) above, with L20P, M62A counted along it
T3 sequence (Q00987 whole entry): as the sequence (Q00987 whole entry Q24R) above, with R24Q counted along it
T5 sequence (Q00987 whole entry): as the sequence (Q00987 whole entry Q24R) above, with R24Q counted along it
T1 sequence (Q00987 whole entry M62A): as the sequence (Q00987 whole entry Q24R) above, with R24Q, M62A counted along it
Sequence of purified HDM2 (amino acids 1-125) Q24R (human) (Q00987 1-125 Q24R limits assumed): as the sequence (Q00987 1-125 P20L limits assumed) above, with L20P, Q24R counted along it
Sequence of purified HDM2 (amino acids 1-125), wild-type (human) (Q00987 1-125 limits assumed): as the sequence (Q00987 1-125 P20L limits assumed) above, with L20P counted along it

Compound: CC(=O)N[C@H](C(=O)N[C@@H](CO)C(=O)N[C@@H](Cc1ccccc1)C(=O)N[C@]1(C)CCCCCCC=CCCC[C@@](C)(C(N)=O)NC(=O)[C@H](CC(C)C)NC(=O)[C@H](CC(C)C)NC(=O)[C@H](C)NC(=O)[C@H](Cc2c[nH]c3cc(Cl)ccc23)NC(=O)[C@H](Cc2ccc(O)cc2)NC(=O)[C@H](CCC(=O)O)NC1=O)[C@@H](C)O [MO11]
- p53 activity restored, of that seen in absence of HDM2 co-transfection [1]: 47%
- effect on p53 binding to immobilised HDM2 (Western blot) [2]: showed inhibition of p53 binding; also recorded: abrogate the mutant HDM2-p53 interaction as efficiently as Nutlin inhibits the wildtype HDM2-p53 interaction
- effect on p53 binding to immobilised HDM2 (Western blot) [3]: showed inhibition of p53 binding
- effect on p53 binding to immobilised HDM2 (Western blot) [4]: showed inhibition of p53 binding; also recorded: abrogate the mutant HDM2-p53 interaction as efficiently as Nutlin inhibits the wildtype HDM2-p53 interaction
- p53 activity restored, of that seen in absence of HDM2 co-transfection [5]: 51%

Compound: p53 peptide
- Kd [6]: 29.6 nM
- Kd [7]: 13.9 nM
- Kd [8]: 10.4 nM
- Kd [9]: 17.2 nM
